Measurements from PubChem BioAssay AID1259407 (Chemical Carcinogenesis Research Information System (CCRIS), 2018).
Active and inactive are the calls of the source. No rule for the calls is given here.

Test system: CCRIS mutagenicity, Ames/micronucleus/aberration tests
Assay: CCRIS mutagenicity studies
[1] = Test System: AMES SALMONELLA TYPHIMURIUM, Strain/Indicator: TA97, Metabolic Activation: NONE, Method: STANDARD PLATE
[2] = Test System: AMES SALMONELLA TYPHIMURIUM, Strain/Indicator: TA98, Metabolic Activation: NONE, Method: STANDARD PLATE
[3] = Test System: AMES SALMONELLA TYPHIMURIUM, Strain/Indicator: TA100, Metabolic Activation: NONE, Method: STANDARD PLATE
[4] = Test System: AMES SALMONELLA TYPHIMURIUM, Strain/Indicator: TA98, Metabolic Activation: S-9, Method: STANDARD PLATE
[5] = Test System: AMES SALMONELLA TYPHIMURIUM, Strain/Indicator: TA100, Metabolic Activation: S-9, Method: STANDARD PLATE
[6] = Test System: AMES SALMONELLA TYPHIMURIUM, Strain/Indicator: TA1535, Metabolic Activation: NONE, Method: STANDARD PLATE
[7] = Test System: AMES SALMONELLA TYPHIMURIUM, Strain/Indicator: TA1535, Metabolic Activation: S-9, Method: STANDARD PLATE
[8] = Test System: AMES SALMONELLA TYPHIMURIUM, Strain/Indicator: TA1537, Metabolic Activation: NONE, Method: STANDARD PLATE
[9] = Test System: AMES SALMONELLA TYPHIMURIUM, Strain/Indicator: TA1537, Metabolic Activation: S-9, Method: STANDARD PLATE

Compound: C=COC(C)=O
- mutagenic call [1]: inactive; negative
- mutagenic call (Test System: AMES SALMONELLA TYPHIMURIUM, Strain/Indicator: TA97, Metabolic Activation: RAT, LIVER, S-9, AROCLOR 1254, Method: STANDARD PLATE): inactive; negative
- mutagenic call [2]: inactive; negative
- mutagenic call (Test System: AMES SALMONELLA TYPHIMURIUM, Strain/Indicator: TA98, Metabolic Activation: RAT, LIVER, S-9, AROCLOR 1254, Method: STANDARD PLATE): inactive; negative
- mutagenic call [3]: inactive; negative
- mutagenic call (Test System: AMES SALMONELLA TYPHIMURIUM, Strain/Indicator: TA100, Metabolic Activation: RAT, LIVER, S-9, AROCLOR 1254, Method: STANDARD PLATE): inactive; negative
- mutagenic call (Test System: AMES SALMONELLA TYPHIMURIUM, Strain/Indicator: TA102, Metabolic Activation: RAT LIVER S-9, PHENOBARBITAL AND 5,6-BENZOFLAVONE, Method: STANDARD PLATE): inactive; negative
- mutagenic call (Test System: AMES SALMONELLA TYPHIMURIUM, Strain/Indicator: TA102, Metabolic Activation: RAT, LIVER, S-9, AROCLOR 1254, Method: PREINCUBATION): active; positive
- mutagenic call (Test System: AMES SALMONELLA TYPHIMURIUM, Strain/Indicator: TA102, Metabolic Activation: RAT, LIVER, S-9, AROCLOR 1254, Method: STANDARD PLATE): inactive; negative
- mutagenic call (Test System: AMES SALMONELLA TYPHIMURIUM, Strain/Indicator: TA2638, Metabolic Activation: RAT LIVER S-9, PHENOBARBITAL AND 5,6-BENZOFLAVONE, Method: STANDARD PLATE): inactive; negative
- mutagenic call (Test System: Ames Salmonella typhimurium, Strain/Indicator: TA98, Metabolic Activation: None, Method: Preincubation): inactive; negative
- mutagenic call (Test System: Ames Salmonella typhimurium, Strain/Indicator: TA98, Metabolic Activation: Rat, Liver, S9, Sodium phenobarbital and 5,6-benzoflavone (10%), Method: Preincubation): inactive; negative
- mutagenic call (Test System: Ames Salmonella typhimurium, Strain/Indicator: TA100, Metabolic Activation: None, Method: Preincubation): inactive; negative
- mutagenic call (Test System: Ames Salmonella typhimurium, Strain/Indicator: TA100, Metabolic Activation: Rat, Liver, S9, Sodium phenobarbital and 5,6-benzoflavone (10%), Method: Preincubation): inactive; negative
- mutagenic call (Test System: Ames Salmonella typhimurium, Strain/Indicator: TA1535, Metabolic Activation: None, Method: Preincubation): inactive; negative
- mutagenic call (Test System: Ames Salmonella typhimurium, Strain/Indicator: TA1535, Metabolic Activation: Rat, Liver, S9, Sodium phenobarbital and 5,6-benzoflavone (10%), Method: Preincubation): inactive; negative
- mutagenic call (Test System: Ames Salmonella typhimurium, Strain/Indicator: TA1537, Metabolic Activation: None, Method: Preincubation): inactive; negative
- mutagenic call (Test System: Ames Salmonella typhimurium, Strain/Indicator: TA1537, Metabolic Activation: Rat, Liver, S9, Sodium phenobarbital and 5,6-benzoflavone (10%), Method: Preincubation): inactive; negative
- mutagenic call (Test System: Ames Salmonella typhimurium, Strain/Indicator: YG7108pin3ERb5, Metabolic Activation: None, Method: Standard plate): inactive; negative
- mutagenic call (Test System: E. COLI, Strain/Indicator: WP2 (PKM101), Metabolic Activation: RAT LIVER S-9, PHENOBARBITAL AND 5,6-BENZOFLAVONE, Method: STANDARD PLATE): inactive; negative
- mutagenic call (Test System: E. COLI, Strain/Indicator: WP2 UVRA (PKM101), Metabolic Activation: RAT LIVER S-9, PHENOBARBITAL AND 5,6-BENZOFLAVONE, Method: STANDARD PLATE): inactive; negative
- mutagenic call (Test System: E. coli, Strain/Indicator: WP2uvrA/pKM101, Metabolic Activation: None, Method: Preincubation): inactive; negative
- mutagenic call (Test System: E. coli, Strain/Indicator: WP2uvrA/pKM101, Metabolic Activation: Rat, Liver, S9, Sodium phenobarbital and 5,6-benzoflavone (10%), Method: Preincubation): inactive; negative
- mutagenic call (Test System: MOUSE LYMPHOMA, Strain/Indicator: L5178Y (TK+/TK-), Metabolic Activation: NONE, Method: SUSPENSION/PLATE): active; positive. reevaluation of results: positive
- mutagenic call (Test System: Mouse lymphoma, Strain/Indicator: L5178Y (tk+/tk-), Metabolic Activation: Rat, Liver, S-9, Aroclor 1254, Method: Suspension/plate): active; positive

Compound: O[C@@H]1C=C2c3ccccc3-c3cccc(c32)[C@H]1O
- mutagenic call (Test System: AMES SALMONELLA TYPHIMURIUM, Strain/Indicator: TM677, Metabolic Activation: NONE, Method: PREINCUBATION): active; positive
- mutagenic call (Test System: AMES SALMONELLA TYPHIMURIUM, Strain/Indicator: TM677, Metabolic Activation: RAT, LIVER, POSTMITOCHONDRIAL SUPERNATANT, AROCLOR 1254, Method: PREINCUBATION): active; positive

Compound: C[n+]1ccn(COCCC(C)(C)[N+](=O)[O-])c1/C=N/O
- mutagenic call [1]: inactive; negative
- mutagenic call (Test System: AMES SALMONELLA TYPHIMURIUM, Strain/Indicator: TA97, Metabolic Activation: S-9, Method: STANDARD PLATE): inactive; negative
- mutagenic call [2]: inactive; negative
- mutagenic call [4]: inactive; negative
- mutagenic call [3]: inactive; negative
- mutagenic call [5]: inactive; negative
- mutagenic call (Test System: AMES SALMONELLA TYPHIMURIUM, Strain/Indicator: TA104, Metabolic Activation: NONE, Method: STANDARD PLATE): inactive; negative
- mutagenic call (Test System: AMES SALMONELLA TYPHIMURIUM, Strain/Indicator: TA104, Metabolic Activation: S-9, Method: STANDARD PLATE): inactive; negative
- mutagenic call [6]: inactive; negative
- mutagenic call [7]: inactive; negative
- mutagenic call [8]: inactive; negative
- mutagenic call [9]: inactive; negative
- mutagenic call (Test System: AMES SALMONELLA TYPHIMURIUM, Strain/Indicator: TA1538, Metabolic Activation: NONE, Method: STANDARD PLATE): inactive; negative
- mutagenic call (Test System: AMES SALMONELLA TYPHIMURIUM, Strain/Indicator: TA1538, Metabolic Activation: S-9, Method: STANDARD PLATE): inactive; negative

Compound: COC(=O)c1cc(OC)c2c(c1-c1c(C(=O)OC)cc(OC)c3c1OCO3)OCO2
- mutagenic call [2]: inactive; negative
- mutagenic call [4]: inactive; negative
- mutagenic call [3]: inactive; negative
- mutagenic call [5]: inactive; negative
- mutagenic call [6]: inactive; negative
- mutagenic call [7]: inactive; negative
- mutagenic call [8]: inactive; negative
- mutagenic call [9]: inactive; negative
